In patent US9533985B2, “Sulfonamide derivative and medicinal use thereof” (EA Pharma Co., Ltd., priority 2012, dated 2017):

Molecular target: α4β7 integrin (Homo sapiens (Human), UniProt P13612+P26010)
Test: MAdCAM-1/α4β7 integrin binding inhibitory activity evaluation test in the presence of serum (2)
Assay type: cell-based
Conditions: RPMI-8866 cells binding to mouse MAdCAM-1/Fc, same manner as Test (3), read-out: α4β7 Rank of activity with serum added
Description: The ability of test substances to inhibit the binding of a human B cell line, RPMI-8866, which is known to express α4β7 integrin, to MAdCAM-1 was measured.
To 96-well microtiter plates, recombinant mouse MAdCAM-1/Fc (R&D systems) solution (1 μg/mL) diluted with buffer A (carbonate buffer, pH 9.6) was added at 50 μL/well, followed by incubation at 4° C. overnight. After washing once with PBS, Block Ace (Snow Brand Milk Products Company, Limited) was added at 150 μL/well, followed by incubation at room temperature for 2 hours. After removal, washing was conducted once with PBS.
100 μL of each test substance diluted with a binding buffer (DMEM containing 40 mM HEPES, 0.2% BSA, and 4 mM MnCl2) to various concentrations and 100 μL of RPMI-8866 cells (2×10^6 cell/mL) were added to plates coated with MAdCAM-1/Fc (5×10^5 cells/well) with human serum being contained at a final concentration of 50%, followed by incubation at 30° C. for 15 minutes to 60 minutes. After the cells were bound to each well, unbound cells were removed by washing with PBS. To the plates, buffer C (PBS containing 1.5% Triton X-100) was added at 50 μL/well to lyse the bound RPMI-8866 cells. To 30 μL of the cell lysate, 30 μL of Substrate Buffer (Promega, CytoTox 96 Non-Radioactive Cytotoxicity Assay) was added, and the reaction was allowed to proceed at room temperature in a dark place for 30 minutes. To each well, 30 μL of Stop Solution (Promega, CytoTox 96 Non-Radioactive Cytotoxicity Assay) was added, and the absorbance at 490 nm was measured by using a plate reader. Here, by the obtained absorbance, the activity of the lactate dehydrogenase (LDH) dissolved into the supernatant of each well was detected. In other words, the absorbance was proportional to the number of the RPMI-8866 cells bound to MAdCAM-1 and remaining on the plate. The test was duplicated. The binding ratios of the cells at various concentrations were determined, with the absorbance of a well containing no test substance taken as 100%. Then, the concentration IC50, at which 50% binding inhibition was achieved, was calculated.
The MAdCAM-1/α4β7 integrin binding inhibitory activity in the presence of serum was measured in the same manner as in Test (3) described above. […] The VCAM-1/α4β1 integrin binding inhibitory activity evaluation test and the MAdCAM-1/α4β7 integrin binding inhibitory activity evaluation test were carried out according to the methods described in Tests (1) and (2) described above.

α4β7 integrin, sequence (P13612 34-1032): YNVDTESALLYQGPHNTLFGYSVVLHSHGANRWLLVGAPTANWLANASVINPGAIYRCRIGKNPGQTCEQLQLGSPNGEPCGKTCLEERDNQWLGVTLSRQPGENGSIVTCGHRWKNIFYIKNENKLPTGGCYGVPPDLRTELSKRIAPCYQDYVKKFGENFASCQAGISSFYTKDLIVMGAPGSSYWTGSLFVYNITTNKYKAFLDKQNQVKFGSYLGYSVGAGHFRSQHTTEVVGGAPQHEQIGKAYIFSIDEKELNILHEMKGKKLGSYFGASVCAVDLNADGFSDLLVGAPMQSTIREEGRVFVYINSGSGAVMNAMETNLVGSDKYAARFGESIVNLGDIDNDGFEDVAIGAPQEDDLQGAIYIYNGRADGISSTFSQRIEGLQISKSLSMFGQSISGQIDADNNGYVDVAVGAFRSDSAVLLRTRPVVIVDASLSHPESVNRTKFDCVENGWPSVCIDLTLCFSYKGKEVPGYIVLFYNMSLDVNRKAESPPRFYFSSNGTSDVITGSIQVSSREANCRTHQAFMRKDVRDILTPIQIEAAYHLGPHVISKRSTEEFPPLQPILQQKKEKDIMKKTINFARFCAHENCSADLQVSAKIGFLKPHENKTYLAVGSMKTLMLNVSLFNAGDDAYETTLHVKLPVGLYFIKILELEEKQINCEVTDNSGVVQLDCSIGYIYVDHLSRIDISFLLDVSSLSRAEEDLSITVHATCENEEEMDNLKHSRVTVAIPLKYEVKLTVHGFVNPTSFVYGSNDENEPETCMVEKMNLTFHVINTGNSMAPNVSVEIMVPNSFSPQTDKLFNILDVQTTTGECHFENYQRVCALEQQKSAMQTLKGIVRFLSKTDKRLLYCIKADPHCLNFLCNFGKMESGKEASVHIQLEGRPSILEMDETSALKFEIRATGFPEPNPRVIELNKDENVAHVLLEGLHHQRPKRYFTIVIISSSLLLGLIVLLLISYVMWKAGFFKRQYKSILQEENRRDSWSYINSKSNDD
α4β7 integrin, sequence (P26010 20-798): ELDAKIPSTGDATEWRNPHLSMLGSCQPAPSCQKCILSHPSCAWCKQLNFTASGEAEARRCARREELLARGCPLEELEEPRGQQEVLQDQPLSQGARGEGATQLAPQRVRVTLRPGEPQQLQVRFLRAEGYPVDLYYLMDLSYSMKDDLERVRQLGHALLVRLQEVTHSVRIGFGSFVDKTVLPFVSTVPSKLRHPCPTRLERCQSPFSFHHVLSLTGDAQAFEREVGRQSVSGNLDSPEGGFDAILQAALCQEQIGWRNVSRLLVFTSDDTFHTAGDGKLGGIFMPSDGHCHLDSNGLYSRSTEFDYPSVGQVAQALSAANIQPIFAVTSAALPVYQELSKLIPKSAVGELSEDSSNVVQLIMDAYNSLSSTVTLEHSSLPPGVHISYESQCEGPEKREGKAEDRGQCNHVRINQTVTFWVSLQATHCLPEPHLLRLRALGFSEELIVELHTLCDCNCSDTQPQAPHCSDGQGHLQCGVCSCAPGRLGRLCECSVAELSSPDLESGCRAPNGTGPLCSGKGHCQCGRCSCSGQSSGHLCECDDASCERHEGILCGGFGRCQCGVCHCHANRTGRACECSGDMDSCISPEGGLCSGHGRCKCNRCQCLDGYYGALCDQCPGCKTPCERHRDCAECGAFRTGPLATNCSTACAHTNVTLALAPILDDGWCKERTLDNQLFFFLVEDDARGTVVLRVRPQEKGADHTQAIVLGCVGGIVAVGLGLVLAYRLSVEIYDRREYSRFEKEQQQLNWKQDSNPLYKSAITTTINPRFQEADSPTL

SMILES	IC50 [nM]
Cn1c(=O)n(-c2ccc(C[C@H](NC(=O)c3ccc(NS(=O)(=O)c4ccccn4)cc3F)C(=O)O)nc2)c(=O)c2ccncc21 [Example 142, N-{2-Fluoro-4-[(pyridin-2-yl-sulfonyl)amino]benzoyl}-3-[5-(1-methyl-2,4-dioxo-1,4-dihydropyrido[3,4-d]pyrimidin-3(2H)-yl)pyridin-2-yl]-L-alanine]	10 to 50
COc1ncc(-c2ccc(S(=O)(=O)Nc3cc(F)c(C(=O)N[C@@H](Cc4ccc(-n5c(=O)c6ccncc6n(C)c5=O)cn4)C(=O)O)cc3F)cc2)cn1 [Example 228, N-[2,5-Difluoro-4-({[4-(2-methoxypyrimidin-5-yl)phenyl]sulfonyl}amino)benzoyl]-3-[5-(1-methyl-2,4-dioxo-1,4-dihydropyrido[3,4-d]pyrimidin-3(2H)-yl)pyridin-2-yl]-L-alanine]	50 to 200
Cn1c(=O)n(-c2ccc(C[C@H](NC(=O)c3ccc(NS(=O)(=O)c4ccco4)cc3F)C(=O)O)nc2)c(=O)c2ccncc21 [Example 139, N-{2-Fluoro-4-[(2-furylsulfonyl)amino]benzoyl}-3-[5-(1-methyl-2,4-dioxo-1,4-dihydropyrido[3,4-d]pyrimidin-3(2H)-yl)pyridin-2-yl]-L-alanine]	10 to 50
CCOc1ccccc1S(=O)(=O)Nc1cc(F)c(C(=O)N[C@@H](Cc2ccc(-n3c(=O)c4ccncc4n(C)c3=O)cc2)C(=O)O)c(F)c1 [Example 214, N-(4-{[(2-Ethoxyphenyl)sulfonyl]amino}-2,6-difluorobenzoyl)-4-(1-methyl-2,4-dioxo-1,4-dihydropyrido[3,4-d]pyrimidin-3(2H)-yl)-L-phenylalanine]	10 to 50
Cn1ccc(=O)n(-c2ccc(C[C@H](NC(=O)c3c(F)cc(NS(=O)(=O)c4ccc(-n5cccc5)cn4)cc3F)C(=O)O)cc2)c1=O [Example 162, N-[2,6-Difluoro-4-({[5-(1H-pyrrol-1-yl)pyridin-2-yl]sulfonyl}amino)benzoyl]-4-(3-methyl-2,6-dioxo-3,6-dihydropyrimidin-1(2H)-yl)-L-phenylalanine]	10 to 50
Cn1c(=O)n(-c2ccc(C[C@H](NC(=O)c3cc(F)c(NS(=O)(=O)c4ccc(-c5cncnc5)cc4)cc3F)C(=O)O)nc2)c(=O)c2ccncc21 [Example 215, N-(2,5-Difluoro-4-{[(4-pyrimidin-5-ylphenyl)sulfonyl]amino}benzoyl)-3-[5-(1-methyl-2,4-dioxo-1,4-dihydropyrido[3,4-d]pyrimidin-3(2H)-yl)pyridin-2-yl]-L-alanine]	10 to 50
CCc1ncc(-c2ccc(S(=O)(=O)Nc3cc(F)c(C(=O)N[C@@H](Cc4ccc(-n5c(=O)c6ccncc6n(C)c5=O)cn4)C(=O)O)cc3F)nc2)cn1 [Example 236, N-[4-({[5-(2-Ethylpyrimidin-5-yl)pyridin-2-yl]sulfonyl}amino)-2,5-difluorobenzoyl]-3-[5-(1-methyl-2,4-dioxo-1,4-dihydropyrido[3,4-d]pyrimidin-3(2H)-yl)pyridin-2-yl]-L-alanine]	10 to 50
CCNC(=O)c1ccc(S(=O)(=O)Nc2cc(F)c(C(=O)N[C@@H](Cc3ccc(-n4c(=O)cc(C)n(C)c4=O)cc3)C(=O)O)c(F)c2)cc1 [Example 155, 4-(3,4-Dimethyl-2,6-dioxo-3,6-dihydropyrimidin-1(2H)-yl)-N-{4-[({4-[(ethylamino)carbonyl]phenyl}sulfonyl)amino]-2,6-difluorobenzoyl}-L-phenylalanine]	10 to 50
Cn1c(=O)n(-c2ccc(C[C@H](NC(=O)c3cc(F)c(NS(=O)(=O)c4ccc(-c5ncccn5)cn4)cc3F)C(=O)O)nc2)c(=O)c2ncccc21 [Example 230, N-(2,5-Difluoro-4-{[(5-pyrimidin-2-ylpyridin-2-yl)sulfonyl]amino}benzoyl)-3-[5-(1-methyl-2,4-dioxo-1,4-dihydropyrido[3,2-d]pyrimidin-3(2H)-yl)pyridin-2-yl]-L-alanine]	50 to 200
Cn1c(=O)n(-c2ccc(C[C@H](NC(=O)c3ccc(NS(=O)(=O)c4ccc5c(c4)C(=O)CC5)cc3F)C(=O)O)nc2)c(=O)c2ccncc21 [Example 144, N-(2-Fluoro-4-{[(3-oxo-2,3-dihydro-1H-inden-5-yl)sulfonyl]amino}benzoyl)-3-[5-(1-methyl-2,4-dioxo-1,4-dihydropyrido[3,4-d]pyrimidin-3(2H)-yl)pyridin-2-yl]-L-alanine]	50 to 200
Cn1c(=O)n(-c2ccc(C[C@H](NC(=O)c3cc(F)c(NS(=O)(=O)c4ccc(-n5ccnn5)cc4)cc3F)C(=O)O)nc2)c(=O)c2ccncc21 [Example 226, N-[2,5-Difluoro-4-({[4-(1H-1,2,3-triazol-1-yl)phenyl]sulfonyl}amino)benzoyl]-3-[5-(1-methyl-2,4-dioxo-1,4-dihydropyrido[3,4-d]pyrimidin-3(2H)-yl)pyridin-2-yl]-L-alanine]	10 to 50
CCc1ncc(-c2ccc(S(=O)(=O)Nc3cc(F)c(C(=O)N[C@@H](Cc4ccc(-n5c(=O)c6ccncc6n(C)c5=O)nc4)C(=O)O)cc3F)cc2)cn1 [Example 238, N-[4-({[4-(2-Ethylpyrimidin-5-yl)phenyl]sulfonyl}amino)-2,5-difluorobenzoyl]-3-[6-(1-methyl-2,4-dioxo-1,4-dihydropyrido[3,4-d]pyrimidin-3(2H)-yl)pyridin-3-yl]-L-alanine]	≤ 10
CCNC(=O)c1ccc(S(=O)(=O)Nc2cc(F)c(C(=O)N[C@@H](Cc3ccc(-n4c(=O)c5c(ncn5C)n(C)c4=O)cc3)C(=O)O)c(F)c2)cc1 [Example 152, 4-(3,7-Dimethyl-2,6-dioxo-2,3,6,7-tetrahydro-1H-purin-1-yl)-N-{4-[({4-[(ethylamino)carbonyl]phenyl}sulfonyl)amino]-2,6-difluorobenzoyl}-L-phenylalanine]	≤ 10
Cn1c(=O)n(-c2ccc(C[C@H](NC(=O)c3cc(F)c(NS(=O)(=O)c4ccc(C(=O)C5CC5)cc4)cc3F)C(=O)O)nc2)c(=O)c2ccncc21 [Example 223, N-[4-({[4-(Cyclopropylcarbonyl)phenyl]sulfonyl}amino)-2,5-difluorobenzoyl]-3-[5-(1-methyl-2,4-dioxo-1,4-dihydropyrido[3,4-d]pyrimidin-3(2H)-yl)pyridin-2-yl]-L-alanine]	50 to 200
Cn1c(=O)n(-c2ccc(C[C@H](NC(=O)c3c(F)cc(NS(=O)(=O)c4ccc(C(=O)NC(C)(C)C)cc4)cc3F)C(=O)O)cc2)c(=O)c2ccncc21 [Example 168, N-{4-[({4-[(tert-Butylamino)carbonyl]phenyl}sulfonyl)amino]-2,6-difluorobenzoyl}-4-(1-methyl-2,4-dioxo-1,4-dihydropyrido[3,4-d]pyrimidin-3(2H)-yl)-L-phenylalanine]	≤ 10
Cn1c(=O)n(-c2ccc(C[C@H](NC(=O)c3cc(F)c(NS(=O)(=O)c4ccco4)cc3F)C(=O)O)nc2)c(=O)c2ccncc21 [Example 140, N-{2,5-Difluoro-4-[(2-furylsulfonyl)amino]benzoyl}-3-[5-(1-methyl-2,4-dioxo-1,4-dihydropyrido[3,4-d]pyrimidin-3(2H)-yl)pyridin-2-yl]-L-alanine]	10 to 50
CCNC(=O)c1ccc(S(=O)(=O)Nc2cc(F)c(C(=O)N[C@@H](Cc3ccc(-n4c(=O)cc(C(C)C)n(C)c4=O)cc3)C(=O)O)c(F)c2)cc1 [Example 156, N-{4-[({4-[(Ethylamino)carbonyl]phenyl}sulfonyl)amino]-2,6-difluorobenzoyl}-4-(4-isopropyl-3-methyl-2,6-dioxo-3,6-dihydropyrimidin-1(2H)-yl)-L-phenylalanine]	10 to 50
